Test results published in patent US20050164233A1, “Compositions, kits and methods for identification and modulation of type I diabetes” (priority 2000, published 2005).

Columns and labels:
[1] = system: Vα24JαQ T cell clone GW4 (nondiabetic, IL-4+); test: Cytokine secretion (ELISA) from anti-CD3-activated Vα24JαQ T cell clone GW4, inhibitor studies; format: cell-based, human; details: IL-4+ clone; for secretion of IFN-γ / anti-CD3-induced IL-4 secretion: plate-bound anti-CD3 1 μg/ml, 4 h, ELISA, 10 nM wortmannin; for secretion of IFN-γ: 10 μM LY294002; for anti-CD3-induced IL-4 secretion: 10 μM LY294002, 50 μM PD98059, 50 μM SB203580; for IL-4 secretion after inhibition of PI3-kinase: anti-CD3 plus PI3-kinase inhibitor, 1 ng/ml PMA or 1 μg/ml ionomycin included
Description: (§1) Single, Vα24-positive, CD4/8 negative single-cell sorts were grown on irradiated allogeneic feeders at 50,000 cells per well with 5,000 cells per well irradiated (5,000 rads) 721.221 lymphoblastoid cells with 1 μg/ml PHA-P, IL-2 and IL-7 each at 10 units/ml (Boehringer Mannheim) and propagated as described (Wilson et al. (1998) Nature 391: 177-181). Clones positive for Vα24 and NKR-P1A by flow cytometry and a Vα24JαQ CDR3 T cell antigen receptor sequence were assayed for cytokine secretion in C1R/CD1s restriction experiments. For cytokine secretion and inhibitor studies, Vα24JαQ T cell clones GW4 (nondiabetic) and ME10 (diabetic) at 5×10^4 cells per well were activated with plate-bound anti-CD3 or Ig control at 1 μg/ml. Secreted IL-4 and IFN-γ were assayed by ELISA after 4 h of activation as described (Wilson et al. (1998) Nature 391: 177-181). Optimal concentrations of inhibitors previously were determined by inhibitor dose-response experiments. The concentrations of inhibitors used were 10 nM wortmannin; 10 μM LY294002, 50 μM PD98059, a mitogen-activated protein kinase kinase inhibitor, and 50 μM SB203580, a p38 kinase inhibitor. The concentrations of phorbol ester and calcium ionophore used were 1 ng/ml phorbol 12-myristate 13-acetate (PMA) and 1 μg/ml ionomycin. Cyclosporin A (CsA) was used at 5 ng/ml as a negative control, due to itS ability to prevent T cell activation. Calcium flux was determined by loading cells with indo-1 as per the manufacturer's specifications (Molecular Probes), followed by activation with anti-CD3 at 10 μg/ml. Maximal calcium flux was determined by the addition of ionomycin.

[2] = system: Vα24JαQ T cell clone ME10 (diabetic, IL-4-null); test: Cytokine secretion (ELISA) from anti-CD3-activated Vα24JαQ T cell clone ME10, inhibitor studies; format: cell-based, human; details: for secretion of IFN-γ: IL-4-null clone, plate-bound anti-CD3 1 μg/ml, 4 h, ELISA, 10 nM wortmannin, 10 μM LY294002; for defect in IL-4 secretion: diabetic-derived clone ME10, 1 ng/ml PMA, 1 μg/ml ionomycin, alone or in combination
Description: as §1

Row | SMILES | secretion of IFN-γ [1] | secretion of IFN-γ [2] | anti-CD3-induced IL-4 secretion [1] | IL-4 secretion after inhibition of PI3-kinase [1] | defect in IL-4 secretion [2]
1 | O=c1cc(N2CCOCC2)oc2c(-c3ccccc3)cccc12 [LY294002] | no effect | no effect |  |  | 
2 | COc1cccc(-c2cc(=O)c3ccccc3o2)c1N [PD98059] |  |  | no effect |  | 
3 | CCCCCCCCCCCCCC(=O)O[C@@H]1[C@@H](C)[C@@]2(O)[C@@H](C=C(CO)C[C@]3(O)C(=O)C(C)=C[C@@H]23)[C@@H]2C(C)(C)[C@]12OC(C)=O [PMA, phorbol 12-myristate 13-acetate] |  |  |  | rescued | Neither of these substances alone or in combination repaired the defect
4 | C[S+]([O-])c1ccc(-c2nc(-c3ccncc3)c(-c3ccc(F)cc3)[nH]2)cc1 (stereo not shown) [SB203580] |  |  | no effect |  | 
5 | C[C@H](CCC(=O)O)C[C@H](C)C[C@H](C)C(=O)/C=C(\O)[C@H](C)C[C@H](C)C/C=C/[C@@H](C)[C@@H](O)[C@@H](C)[C@@H](O)C[C@@H]1CC[C@@](C)([C@H]2CC[C@@](C)([C@@H](C)O)O2)O1 [ionomycin] |  |  |  | rescued | Neither of these substances alone or in combination repaired the defect
6 | COC[C@H]1OC(=O)c2coc3c2[C@@]1(C)C1=C(C3=O)[C@@H]2CCC(=O)[C@@]2(C)C[C@H]1OC(C)=O [wortmannin] | no effect | no effect |  |  | 
